{"source": "paper PMC5773577", "about": "“Novel Miniature Membrane Active Lipopeptidomimetics against Planktonic and Biofilm Embedded Methicillin-Resistant Staphylococcus aureus” (Scientific Reports, 2018)", "key": {"S. aureus (ISP479R)": {"test_system": "S. aureus (ISP479R)", "format": "cell-based, Staphylococcus aureus", "details": "MHB, 2–5 × 10^5 CFU/mL, 16–18 h, 37 °C, OD600", "method": "(§1) The antibacterial activity was evaluated as MIC using slight modifications to a serial broth micro dilution method as reported previously[66],[67]. Briefly, to each treatment well of the 96-well plate (Corning Incorporated, USA) 10 μL of peptidomimetic/antibiotic was added and subsequently diluted serial 2-fold in 0.2% BSA (in 0.01% acetic acid). Then to each well of the first 11 columns 100 μL of mid-log phase bacterial suspension in MHB medium was added to get 2–5 × 10^5 CFU/mL. Cultures without test peptidomimetics/antibiotics were used as growth control. Uninoculated MHB medium was used as negative control. The microtitre plates were incubated overnight with agitation (180 rpm) at 37 °C. After 16–18 h incubation, absorbance was read at 600 nm using an ELISA plate reader (Molecular Devices, Sunnyvale, CA, USA). The experiments were carried out in duplicate on at least three different days."}, "MRSA (ATCC 43300)": {"test_system": "MRSA (ATCC 43300)", "assay": "microbe, parasite or virus in culture", "format": "cell-based, Staphylococcus aureus", "details": "MHB, 2–5 × 10^5 CFU/mL, 16–18 h, 37 °C, OD600", "method": "as §1"}, "[1]": {"test_system": "Methicillin-resistant S. epidermidis (ATCC 35984)", "assay": "microbe, parasite or virus in culture", "format": "cell-based, Staphylococcus epidermidis", "details": "MRSE ATCC 35984; MHB, 2–5 × 10^5 CFU/mL, 16–18 h, 37 °C, OD600", "method": "as §1"}, "[2]": {"test_system": "E. faecium (E-7846), clinical isolate of vancomycin-resistant E. faecium", "assay": "organism not typed", "format": "cell-based, Enterococcus faecium", "details": "VRE clinical isolate E-7846; MHB, 2–5 × 10^5 CFU/mL, 16–18 h, 37 °C", "method": "as §1"}, "[3]": {"test_system": "Escherichia coli (ATCC 11775)", "format": "cell-based", "method": "as §1"}, "[4]": {"test_system": "3T3 murine fibroblast cell line", "assay": "Cytotoxicity, MTT assay", "format": "cell-based", "details": "3T3 fibroblasts, 2 h, DMEM with 10% FBS, mean ± S.D., triplicate on two days", "method": "For the active peptidomimetics cytotoxicity was measured against 3T3 murine fibroblast cell line using a previously defined MTT assay with slight modifications. Briefly, the cells were grown to over 75% confluence in DMEM supplemented with 10% FBS and antibiotics (1 × Anti-anti) at 37 °C in 5% CO2 atmosphere. The cells were transferred to a 24-well plate to a final count of ~8 × 10^4 cells/well. […] The plates were kept for 2 h at 37 °C in 5% CO2 incubator. After 2 h, the cells were washed once with 1 mL PBS. Then 1 mL MTT (0.1 mg/mL) was added to each well in dark and incubated for 2 h at 37 °C in 5% CO2. After 2 h, 200 μL of DMSO was added to the wells to dissolve the formazan crystals formed and the plates were kept for 5 min in the incubator at 37 °C. 100 μL of the suspension was transferred to a fresh 96-well plate and absorbance (Asample) was measured at 570 nm in an ELISA plate reader (Molecular Devices, Sunnyvale, CA, USA). The wells with DMSO treatment were set as untreated control (Auntreated control). The assay was done in triplicate on two different days. The % survival was calculated using the following equation:2 %survival=[Asample/Auntreatedcontrol]×100"}, "[5]": {"test_system": "mouse red blood cells (RBCs)", "assay": "Hemolysis assay", "format": "cell-based", "details": "mouse RBC, up to 250 μg/mL, 1 h, 37 °C, PBS pH 7.4; 0.1% Triton X-100 = 100%; data not shown", "method": "For the experiment, a previously defined procedure was used with slight modifications[67],[68]. Briefly, blood was withdrawn from mice on the day of the experiment. After washing red blood cells (RBC) twice with phosphate buffer saline (PBS: 35 mM sodium phosphate, 150 mM NaCl, pH 7.4), a 4% v/v suspension of RBC was prepared in the same buffer. In a 96-well plate, serial two-fold dilutions of desired concentrations of peptidomimetics (in PBS) were prepared (100 μL) in duplicate. To each well 100 μL of 4% v/v RBC suspension was added. The plates were incubated at 37 °C for 1 h. After 1 h, the plates were centrifuged at 1500 rpm for 10 min and 20 μL of the supernatant was transferred to a fresh 96-well plate containing 80 μL PBS. The hemoglobin release was quantified by measuring OD414 in an ELISA plate reader (Molecular Devices, Sunnyvale, CA, USA). Hemoglobin release from 0.1% Triton X-100 treated RBC was set as 100% lysis (Amax) while as negative control RBC suspended in PBS alone was used (APBS). Percentage hemolysis was calculated using the following equation:1 %hemolysis=[(Asample−APBS)/(Amax−APBS)]×100"}, "MRSA (ATCC 33591)": {"test_system": "MRSA (ATCC 33591)", "assay": "microbe, parasite or virus in culture", "format": "cell-based, Staphylococcus aureus", "details": "MHB, 2–5 × 10^5 CFU/mL, 16–18 h, 37 °C, OD600", "method": "as §1"}, "S. aureus (ATCC 29213)": {"test_system": "S. aureus (ATCC 29213)", "assay": "microbe, parasite or virus in culture", "format": "cell-based, Staphylococcus aureus", "details": "MHB, 2–5 × 10^5 CFU/mL, 16–18 h, 37 °C, OD600, duplicate, at least three days", "method": "as §1"}, "S. aureus (ISP479C)": {"test_system": "S. aureus (ISP479C)", "assay": "microbe, parasite or virus in culture", "format": "cell-based, Staphylococcus aureus", "details": "MHB, 2–5 × 10^5 CFU/mL, 16–18 h, 37 °C, OD600", "method": "as §1"}, "[6]": {"test_system": "E. faecium (E-447), clinical isolate of vancomycin-resistant E. faecium", "assay": "organism not typed", "format": "cell-based, Enterococcus faecium", "details": "VRE clinical isolate E-447; MHB, 2–5 × 10^5 CFU/mL, 16–18 h, 37 °C", "method": "as §1"}, "MRSA ATCC 33591": {"test_system": "MRSA ATCC 33591", "assay": "microbe, parasite or virus in culture", "format": "cell-based, Staphylococcus aureus", "method": "An initial inoculum of mid-log phase 10^7 CFU/mL was used and MIC experiment was performed as described earlier. For serum/plasma stability assay a method as described previously was used with slight modifications. Briefly, 50 μL MHB medium containing desired concentration of test peptidomimetics was incubated with 50 µL mice plasma/fetal bovine serum for 3 h at 37 °C. After incubation, a 10 μL aliquot was taken out for MIC determination as described above. For the experiment, mid-log phase 2–5 × 10^5 CFU/mL were used as initial inoculum. For the growth control wells, an equivalent amount of plasma/FBS in the medium was also added to evaluate their effect on the viability of cells. A slight decrease in OD600 of cells incubated with mice plasma was observed compared to untreated growth control in MHB alone. The experiments were repeated on two different days and reproducible MIC values were observed."}, "[7]": {"details": "MRSA ATCC 33591, initial inoculum 10^7 CFU/mL, mid-log phase"}}, "note": "Non-standard residues stand in square brackets, D forms with d. Residues, ends and D or L forms follow the SMILES beside them. d1Nal = N[C@H](Cc1cccc2ccccc12)C(=O)O; 12Ado = NCCCCCCCCCCCC(=O)O"}
{"smiles": "N=C(N)NCCC[C@H](NC(=O)[C@@H](Cc1cccc2ccccc12)NC(=O)CCCCCCCCCCCNC(=O)[C@@H](Cc1cccc2ccccc12)NC(=O)[C@@H](N)CCCNC(=N)N)C(N)=O", "note": "[S-8, Arg-(D-1-Nal)-(12-ADO)-(D-1-Nal)-Arg-CONH2] (H-R[d1Nal][12Ado][d1Nal]R-NH2)", "values": [{"measurement": "Minimum inhibitory concentration, MIC", "setting": "S. aureus (ISP479R)", "value": 0.7, "unit": "µg/mL"}, {"measurement": "Minimum inhibitory concentration, MIC", "setting": "MRSA (ATCC 43300)", "value": 1.4, "unit": "µg/mL"}, {"measurement": "Minimum inhibitory concentration, MIC", "setting": "[1]", "value": 1.4, "unit": "µg/mL"}, {"measurement": "Minimum inhibitory concentration, MIC", "setting": "[2]", "value": 5.6, "unit": "µg/mL"}, {"measurement": "MIC", "setting": "[3]", "value": 5.6, "unit": "µg/mL"}, {"measurement": "% viable cells relative to untreated control (MTT)", "setting": "[4]; 10× MIC", "value": "84.8 ± 5.6", "unit": "%"}, {"measurement": "% viable cells relative to untreated control (MTT)", "setting": "[4]; 20 × MIC", "value": "81.1 ± 2.9", "unit": "%"}]}
{"smiles": "N=C(N)NCCC[C@H](NC(=O)[C@@H](N)Cc1c[nH]c2ccccc12)C(=O)N[C@H](Cc1ccccc1C(F)(F)F)C(=O)N[C@@H](CCCNC(=N)N)C(=O)N[C@@H](Cc1c[nH]c2ccccc12)C(N)=O", "note": "[S-2, Trp-Arg-(2-trifluoromethyl-D-Phe)-Arg-Trp-CONH2] (HELM PEPTIDE1{W.R.[O=C([C@@H](Cc1ccccc1C(F)(F)F)N[*:1])[*:2]].R.W.[am]}$$$$V2.0)", "values": [{"measurement": "% hemolysis", "setting": "[5]", "value": "< 5", "unit": "%"}]}
{"smiles": "N=C(N)NCCC[C@H](NC(=O)CCCCCCCCCCCNC(=O)[C@H](CCCNC(=N)N)NC(=O)[C@@H](N)Cc1c[nH]c2ccccc12)C(=O)N[C@@H](Cc1c[nH]c2ccccc12)C(N)=O", "note": "[S-6, Trp-Arg-(12-ADO)-Arg-Trp-CONH2] (HELM PEPTIDE1{W.R.[O=C(CCCCCCCCCCCN[*:1])[*:2]].R.W.[am]}$$$$V2.0)", "values": [{"measurement": "Minimum inhibitory concentration, MIC", "setting": "S. aureus (ISP479R)", "value": 11.3, "unit": "µg/mL"}, {"measurement": "Minimum inhibitory concentration, MIC", "setting": "MRSA (ATCC 33591)", "value": 11.3, "unit": "µg/mL"}, {"measurement": "Minimum inhibitory concentration, MIC", "setting": "MRSA (ATCC 43300)", "value": 11.3, "unit": "µg/mL"}, {"measurement": "Minimum inhibitory concentration, MIC", "setting": "S. aureus (ATCC 29213)", "value": 11.3, "unit": "µg/mL"}, {"measurement": "Minimum inhibitory concentration, MIC", "setting": "S. aureus (ISP479C)", "value": 11.3, "unit": "µg/mL"}, {"measurement": "Minimum inhibitory concentration, MIC", "setting": "[1]", "value": 11.3, "unit": "µg/mL"}, {"measurement": "Minimum inhibitory concentration, MIC", "setting": "[6]", "value": 11.3, "unit": "µg/mL"}, {"measurement": "Minimum inhibitory concentration, MIC", "setting": "[2]", "value": 11.3, "unit": "µg/mL"}, {"measurement": "MIC", "setting": "[3]", "value": "> 45.4", "unit": "µg/mL"}, {"measurement": "Minimum inhibitory concentration, MIC", "setting": "MRSA ATCC 33591; ATCC 33591, 3 h", "value": 22.7, "unit": "µg/mL"}, {"measurement": "Minimum inhibitory concentration, MIC", "setting": "MRSA ATCC 33591; [7]", "value": 11.3, "unit": "µg/mL"}, {"measurement": "% viable cells relative to untreated control (MTT)", "setting": "[4]; 10× MIC", "value": "no decrease in cell viability"}, {"measurement": "% viable cells relative to untreated control (MTT)", "setting": "[4]; 20 × MIC", "value": "no decrease in cell viability"}]}
{"smiles": "N=C(N)NCCC[C@H](NC(=O)[C@H](Cc1c[nH]c2ccccc12)NC(=O)CCCCCCCCCCCNC(=O)[C@H](Cc1c[nH]c2ccccc12)NC(=O)[C@@H](N)CCCNC(=N)N)C(N)=O", "note": "[S-7, Arg-Trp-(12-ADO)-Trp-Arg-CONH2] (HELM PEPTIDE1{R.W.[O=C(CCCCCCCCCCCN[*:1])[*:2]].W.R.[am]}$$$$V2.0)", "values": [{"measurement": "Minimum inhibitory concentration, MIC", "setting": "S. aureus (ISP479R)", "value": 11.3, "unit": "µg/mL"}, {"measurement": "Minimum inhibitory concentration, MIC", "setting": "MRSA (ATCC 33591)", "value": 11.3, "unit": "µg/mL"}, {"measurement": "Minimum inhibitory concentration, MIC", "setting": "MRSA (ATCC 43300)", "value": 11.3, "unit": "µg/mL"}, {"measurement": "Minimum inhibitory concentration, MIC", "setting": "S. aureus (ATCC 29213)", "value": 11.3, "unit": "µg/mL"}, {"measurement": "Minimum inhibitory concentration, MIC", "setting": "S. aureus (ISP479C)", "value": 11.3, "unit": "µg/mL"}, {"measurement": "Minimum inhibitory concentration, MIC", "setting": "[1]", "value": 11.3, "unit": "µg/mL"}, {"measurement": "Minimum inhibitory concentration, MIC", "setting": "[6]", "value": 11.3, "unit": "µg/mL"}, {"measurement": "Minimum inhibitory concentration, MIC", "setting": "[2]", "value": 5.6, "unit": "µg/mL"}, {"measurement": "MIC", "setting": "[3]", "value": "> 45.4", "unit": "µg/mL"}, {"measurement": "Minimum inhibitory concentration, MIC", "setting": "MRSA ATCC 33591; ATCC 33591, 3 h", "value": 22.7, "unit": "µg/mL"}, {"measurement": "Minimum inhibitory concentration, MIC", "setting": "MRSA ATCC 33591; MRSA ATCC 33591, after 3 h pre-incubation at 37 °C with mice plasma (50%, v/v), inoculum 2–5 × 10^5 CFU/mL, repeated on two days", "value": ">45.4", "unit": "µg/mL"}, {"measurement": "Minimum inhibitory concentration, MIC", "setting": "MRSA ATCC 33591; [7]", "value": 11.3, "unit": "µg/mL"}, {"measurement": "% viable cells relative to untreated control (MTT)", "setting": "[4]; 10× MIC", "value": "no decrease in cell viability"}, {"measurement": "% viable cells relative to untreated control (MTT)", "setting": "[4]; 20 × MIC", "value": "no decrease in cell viability"}]}
